Laboratory results reported in ChEMBL document CHEMBL2169738, “Rational design of a low molecular weight, stable, potent, and long-lasting GPR103 aza-β3-pseudopeptide agonist” (J Med Chem, 2012).
Values belong to the compound of their own block, whether it stands above or below them. Active and inactive are the calls of the source. No cut-off for these calls is given here. Numbered stars: 1 amine (or outer) side, 2 acyl side, 3 side chain; on linkers, the order of the positions; unused ones are H or OH. Square brackets hold non-standard residues; d marks the D form. Peptide text beside a SMILES is read from it. * marks the point of attachment. Acetyl(2-(piperazin-1-yl)) = O=C(CN1CCNCC1)*; azaβ3hArg = N=C(N)NCCCN(CC(=O)[*:2])N[*:1]; Hydrazinoacetyl = O=C(CNN[*:1])[*:2]; X5 = O=C(CN(Cc1ccccc1)N[*:1])[*:2]; X9 = O=C(CN(CC1CCCCC1)N[*:1])[*:2]; X1 = O=C(CN(CC(O)CO)N[*:1])[*:2]; X3 = CCCCN(CC(=O)[*:2])N[*:1]; X4 = CCCN(CC(=O)[*:2])N[*:1]; X6 = O=C(CN(CCO)N[*:1])[*:2]; X2 = NC(=O)CN(Cc1ccccc1)N*; X8 = CN(CC(=O)[*:2])N[*:1]; X7 = O=C(CN1CCCN1)*

Legend:
[1] = target: T1, Pyroglutamylated RF-amide peptide receptor (Homo sapiens, UniProt Q96P65); test: Antagonist activity at human GPR103 expressed in CHO cells co-expressing Galpha16 assessed as inhibition of human 26RFa-induced increase in intracellular calcium level by fluorimetry; type: functional, cell-based
T1 sequence (Q96P65 whole entry): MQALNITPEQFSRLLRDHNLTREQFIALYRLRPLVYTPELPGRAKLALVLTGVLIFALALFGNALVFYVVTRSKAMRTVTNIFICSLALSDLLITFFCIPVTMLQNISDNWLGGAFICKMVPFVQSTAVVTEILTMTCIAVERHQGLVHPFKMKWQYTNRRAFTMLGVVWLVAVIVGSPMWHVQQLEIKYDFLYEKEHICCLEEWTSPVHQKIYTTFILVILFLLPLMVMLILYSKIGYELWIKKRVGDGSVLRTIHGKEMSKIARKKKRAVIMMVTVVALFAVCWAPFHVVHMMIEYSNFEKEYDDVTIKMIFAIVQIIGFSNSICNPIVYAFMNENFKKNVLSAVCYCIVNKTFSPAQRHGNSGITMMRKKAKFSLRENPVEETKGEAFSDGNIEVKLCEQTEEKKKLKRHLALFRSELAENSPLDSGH

[2] = target: T1, Pyroglutamylated RF-amide peptide receptor; test: Agonist activity at human GPR103 expressed in CHO cells co-expressing Galpha16 assessed as increase in intracellular calcium level measured for 2 mins by fluorimetry; type: functional, cell-based
Mus musculus [3] = test: Orexigenic effect in icv dosed Swiss albino CD1 mouse assessed as cumulative food intake measured after 2 hrs; type: functional
[4] = Half life in human serum by RP-HPLC; type: ADME, cell-free
Mus musculus [5] = test: Orexigenic effect in Swiss albino CD1 mouse at 0.012 to 1.2 nmol, icv after 30 mins; type: functional, organism-based
[6] = target: T1, Pyroglutamylated RF-amide peptide receptor; test: Displacement of [125I]26RFa from human GPR103 expressed in HEK293 cells incubated for 1 h by gamma counter based method; type: cell-based
Mus musculus [7] = test: Orexigenic effect in Swiss albino CD1 mouse at 1.2 nmol, icv measured after every 30 mins for 60 to 90 mins; type: functional, organism-based
Mus musculus [8] = test: Orexigenic effect in Swiss albino CD1 mouse at 0.012 to 1.2 nmol, icv measured for 30 mins; type: functional, organism-based
Serum [9] = test: Compound degradation in human serum assessed as breakdown of N-terminal region incubated for 15 mins by RP-HPLC; type: ADME, cell-free; settings: 0.25 h
Mus musculus [10] = test: Orexigenic effect in Swiss albino CD1 mouse at 1.2 nmol, icv measured after every 30 mins for 90 to 120 mins; type: functional, organism-based
Mus musculus [11] = test: Orexigenic effect in icv dosed Swiss albino CD1 mouse measured after every 30 mins; type: functional, organism-based
Serum [12] = test: Ratio of t1/2 of compound to t1/2 of 26RFa in human serum by RP-HPLC; type: ADME, cell-free
Serum [13] = test: Compound degradation in human serum assessed as breakdown of N-terminal region incubated for 2 mins by RP-HPLC; type: ADME, cell-free

IC50 [1]: > 10000 nM
EC50 [2]: > 10000 nM
SMILES: NCC(=O)NCC(=O)N[C@@H](Cc1ccccc1)C(=O)N[C@@H](CO)C(=O)N[C@@H](Cc1ccccc1)C(=O)N[C@@H](CCCN=C(N)N)C(=O)NN(CC(N)=O)Cc1ccccc1 (H-GGFSFR-X2)

half-life [4]: 11.2 min
IC50 [6]: 8730 nM
SMILES: N=C(N)NCCC[C@H](NC(=O)[C@H](Cc1ccccc1)NC(=O)[C@H](CO)NC(=O)[C@H](Cc1ccccc1)NC(=O)CNC(=O)CN)C(=O)N[C@@H](Cc1ccccc1)C(N)=O (H-GGFSFRF-NH2)
Activity (Mus musculus [3]): 1833 mg
Activity (Mus musculus [5]): inactive
Activity (Mus musculus [7]): Active
Activity (Mus musculus [8]): Active

IC50 [1]: > 10000 nM
EC50 [2]: > 10000 nM
SMILES: NCC(=O)NCC(=O)N[C@@H](Cc1ccccc1)C(=O)N[C@@H](CO)C(=O)N[C@@H](Cc1ccccc1)C(=O)NN(CCCN=C(N)N)CC(=O)N[C@@H](Cc1ccccc1)C(N)=O (H-GGFSF[azaβ3hArg]F-NH2)

IC50 [1]: > 10000 nM
EC50 [2]: > 10000 nM
SMILES: NCC(=O)NCC(=O)N[C@@H](Cc1ccccc1)C(=O)N[C@@H](CO)C(=O)NN(CC(=O)N[C@@H](CCCN=C(N)N)C(=O)N[C@@H](Cc1ccccc1)C(N)=O)Cc1ccccc1 (H-GGFS[X5]RF-NH2)

EC50 [2]: 341 nM
SMILES: NCC(=O)NCC(=O)N[C@@H](Cc1ccccc1)C(=O)NN(CC(=O)N[C@@H](Cc1ccccc1)C(=O)N[C@@H](CCCN=C(N)N)C(=O)N[C@@H](Cc1ccccc1)C(N)=O)CC(O)CO (some centres not stated) (H-GGF[X1]FRF-NH2)

EC50 [2]: 29800 nM
SMILES: CCCCN(CC(=O)N[C@@H](Cc1ccccc1)C(=O)N[C@@H](CCCNC(=N)N)C(=O)N[C@@H](Cc1ccccc1)C(N)=O)NC(=O)[C@H](Cc1ccccc1)NC(=O)CNC(=O)CN (H-GGF[X3]FRF-NH2)

IC50 [1]: > 10000 nM
EC50 [2]: > 10000 nM
SMILES: CCCN(CC(=O)N[C@@H](Cc1ccccc1)C(=O)N[C@@H](CCCN=C(N)N)C(=O)N[C@@H](Cc1ccccc1)C(N)=O)NC(=O)[C@H](Cc1ccccc1)NC(=O)CNC(=O)CN (H-GGF[X4]FRF-NH2)

SMILES: N=C(N)NCCC[C@H](NC(=O)[C@H](Cc1ccccc1)NC(=O)CN(CCO)NC(=O)[C@H](Cc1ccccc1)NC(=O)CNC(=O)CN)C(=O)N[C@@H](Cc1ccccc1)C(N)=O (H-GGF[X6]FRF-NH2)
EC50 [2]: 1090 nM

EC50 [2]: 1100 nM
SMILES: CN(CC(=O)N[C@@H](Cc1ccccc1)C(=O)N[C@@H](CCCN=C(N)N)C(=O)N[C@@H](Cc1ccccc1)C(N)=O)NC(=O)[C@H](Cc1ccccc1)NC(=O)CNC(=O)CN (H-GGF[X8]FRF-NH2)

EC50 [2]: 1370 nM
SMILES: NCC(=O)NCC(=O)N[C@@H](Cc1ccccc1)C(=O)NN(CC(=O)N[C@@H](Cc1ccccc1)C(=O)N[C@@H](CCCN=C(N)N)C(=O)N[C@@H](Cc1ccccc1)C(N)=O)CC1CCCCC1 (H-GGF[X9]FRF-NH2)

EC50 [2]: 2340 nM
SMILES: NCC(=O)NCC(=O)NN(CC(=O)N[C@@H](CO)C(=O)N[C@@H](Cc1ccccc1)C(=O)N[C@@H](CCCN=C(N)N)C(=O)N[C@@H](Cc1ccccc1)C(N)=O)Cc1ccccc1 (H-GG[X5]SFRF-NH2)

IC50 [6]: 2990 nM
EC50 [2]: 136 nM
SMILES: N=C(N)NCCC[C@H](NC(=O)[C@H](Cc1ccccc1)NC(=O)[C@H](CO)NC(=O)[C@H](Cc1ccccc1)NC(=O)CNNC(=O)CN)C(=O)N[C@@H](Cc1ccccc1)C(N)=O (H-G[Hydrazinoacetyl]FSFRF-NH2)

half-life [4]: 6.9 min
IC50 [6]: 1.26 nM
SMILES: CC(C)C[C@H](NC(=O)[C@H](CC(N)=O)NC(=O)CNC(=O)[C@H](CC(C)C)NC(=O)[C@@H]1CCCN1C(=O)CNC(=O)[C@H](CO)NC(=O)[C@@H](N)[C@@H](C)O)C(=O)N[C@@H](C)C(=O)N[C@@H](CCC(=O)O)C(=O)N[C@@H](CCC(=O)O)C(=O)N[C@@H](CC(C)C)C(=O)N[C@@H](CC(N)=O)C(=O)NCC(=O)N[C@@H](Cc1ccc(O)cc1)C(=O)N[C@@H](CO)C(=O)N[C@@H](CCCNC(=N)N)C(=O)N[C@@H](CCCCN)C(=O)N[C@@H](CCCCN)C(=O)NCC(=O)NCC(=O)N[C@@H](Cc1ccccc1)C(=O)N[C@@H](CO)C(=O)N[C@@H](Cc1ccccc1)C(=O)N[C@@H](CCCNC(=N)N)C(=O)N[C@@H](Cc1ccccc1)C(N)=O (H-TSGPLGNLAEELNGYSRKKGGFSFRF-NH2)

EC50 [2]: 429 nM
SMILES: N=C(N)NCCC[C@H](NC(=O)[C@H](Cc1ccccc1)NC(=O)[C@H](CO)NC(=O)[C@H](Cc1ccccc1)NC(=O)CNC(=O)CNN)C(=O)N[C@@H](Cc1ccccc1)C(N)=O (Hydrazinoacetyl-GFSFRF-NH2)

EC50 [2]: 382 nM
SMILES: N=C(N)NCCC[C@H](NC(=O)[C@H](Cc1ccccc1)NC(=O)CN(CC(O)CO)NC(=O)[C@H](Cc1ccccc1)NC(=O)CN1CCCN1)C(=O)N[C@@H](Cc1ccccc1)C(N)=O (some centres not stated) (X7-F[X1]FRF-NH2)

EC50 [2]: 138 nM
SMILES: NC(=O)[C@H](Cc1ccccc1)NC(=O)[C@H](CCCN=C(N)N)NC(=O)[C@H](Cc1ccccc1)NC(=O)[C@H](CO)NC(=O)[C@H](Cc1ccccc1)NC(=O)CN1CCNCC1 ({Acetyl(2-(piperazin-1-yl))}-FSFRF-NH2)

half-life [4]: 35.6 min
Stability (Serum [9]): Stable
Ratio (Serum [12]): 5
IC50 [6]: 1990 nM
Stability (Serum [13]): Stable
EC50 [2]: 93.6 nM
SMILES: N=C(N)NCCC[C@H](NC(=O)[C@H](Cc1ccccc1)NC(=O)CN(CC(O)CO)NC(=O)[C@H](Cc1ccccc1)NC(=O)CN1CCNCC1)C(=O)N[C@@H](Cc1ccccc1)C(N)=O (some centres not stated) ({Acetyl(2-(piperazin-1-yl))}-F[X1]FRF-NH2)
Activity (Mus musculus [3]): 1873 mg
Activity (Mus musculus [10]): Active
Activity (Mus musculus [11]): Dose-dependent effect

EC50 [2]: 164 nM
SMILES: CCCN(CC(=O)N[C@@H](Cc1ccccc1)C(=O)N[C@@H](CCCNC(=N)N)C(=O)N[C@@H](Cc1ccccc1)C(N)=O)NC(=O)[C@H](Cc1ccccc1)NC(=O)CN1CCNCC1 ({Acetyl(2-(piperazin-1-yl))}-F[X4]FRF-NH2)
